SMILES strings stand for the structures. Read-outs that look alike come from different tables or passages of the source.

Assay type in all cases: in vivo
Experiment [1] deals with barnyardgrass (Echinochloa crus-galli). Briefly: Test A greenhouse herbicide test, pre- and postemergence. The note with it: Echinochloa crus-galli, 240 h; for pest or weed control at 125 g/ha: 125 g ai/ha; for pest or weed control at 500 g/ha: 500 g ai/ha; for pest or weed control at 500 g/ha / pest or weed control at 1000 g/ha: 0 to 100 scale; for pest or weed control at 1000 g/ha: 1000 g ai/ha. In outline: (§1)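 Seeds sown in loam–sand blend got a preemergence directed soil spray of compound in non-phytotoxic solvent with surfactant. Postemergence treatment was given at 2–10 cm, one- to two-leaf stage. After ~10 d in greenhouse, injury was rated visually vs untreated controls, 0 (no effect) to 100 (complete control).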

The subject of another experiment is corn (Zea mays). The description is as above. The conditions noted are these: Zea mays, 240 h. In outline: as §1
For experiment [2], the system named is foxtail, giant (giant foxtail, Setaria faberii). Described as above. The conditions noted are these: Setaria faberi, 240 h; for pest or weed control at 125 g/ha: 125 g ai/ha; for pest or weed control at 500 g/ha: 500 g ai/ha; for pest or weed control at 500 g/ha / pest or weed control at 1000 g/ha: 0 to 100 scale; for pest or weed control at 1000 g/ha: 1000 g ai/ha. The procedure, abridged:
as §1

Experiment [3] concerns pigweed (Amaranthus retroflexus). Described as above. The note with it: Amaranthus retroflexus, 240 h; for pest or weed control at 125 g/ha: 125 g ai/ha; for pest or weed control at 500 g/ha: 500 g ai/ha; for pest or weed control at 500 g/ha / pest or weed control at 1000 g/ha: 0 to 100 scale; for pest or weed control at 1000 g/ha: 1000 g ai/ha. The procedure, abridged:
as §1

Experiment [4] relates to wheat (Triticum aestivum). The experiment is described as above. The conditions noted are these: Triticum aestivum, 240 h; for plant injury at 125 g/ha: 125 g ai/ha; for plant injury at 500 g/ha: 500 g ai/ha; for plant injury at 500 g/ha / plant injury at 1000 g/ha: 0 to 100 scale; for plant injury at 1000 g/ha: 1000 g ai/ha. The procedure, abridged:
as §1

In another experiment the test system is kochia (Kochia scoparia). Kind of experiment: Test C greenhouse herbicide test, postemergence. The source says:
(§2) At the same time, plants selected from these crop and weed species and also chickweed (common chickweed, Stellaria media), kochia (Kochia scoparia), and oat, wild (wild oat, Avena fatua), were planted in pots containing Redi-Earth® planting medium (Scotts Company, 14111 Scottslawn Road, Marysville, Ohio 43041) comprising spaghnum peat moss, vermiculite, wetting agent and starter nutrients and treated with postemergence applications of test chemicals formulated in the same manner. Plants ranged in height from 2 to 18 cm (1- to 4-leaf stage) for postemergence treatments. Treated plants and controls were maintained in a greenhouse for 13 to 15 d, after which time all species were compared to controls and visually evaluated. Plant response ratings, summarized in Table C, are based on a scale of 0 to 100 where 0 is no effect and 100 is complete control. A dash (-) response means no test result.

Experiment [5] relates to oat, wild (wild oat, Avena fatua). Kind of experiment: Test C greenhouse herbicide test, postemergence.
From the text: as §2

Where [6] appears, read: post-emergence, Postemergence, 0 is no effect, 100 is complete control, read-out: Barnyardgrass plant response rating.
Setting [7] is: pre-emergence, Preemergence, 0 no effect, 100 complete control, read-out: Plant response rating, Barnyardgrass.
Where [8] appears, read: post-emergence, Postemergence, 0 is no effect, 100 is complete control, read-out: Foxtail, Giant plant response rating.
Setting [9] is: pre-emergence, Preemergence, 0 no effect, 100 complete control, read-out: Plant response rating, Foxtail, Giant.
[10] abbreviates: post-emergence, Postemergence, 0 is no effect, 100 is complete control, read-out: Pigweed plant response rating.
Setting [11] is: pre-emergence, Preemergence, 0 no effect, 100 complete control, read-out: Plant response rating, Pigweed.
Where [12] appears, read: post-emergence, Postemergence, 0 is no effect, 100 is complete control, read-out: Wheat plant response rating.
[13] abbreviates: pre-emergence, Preemergence, 0 no effect, 100 complete control, read-out: Plant response rating, Wheat.
Where [14] appears, read: Postemergence, 31 g ai/ha, 0 to 100 scale (0 no effect, 100 complete control).
[15] abbreviates: Postemergence, 125 g ai/ha, scale 0 to 100, 0 is no effect, 100 is complete control.
Where [16] appears, read: Postemergence, 250 g ai/ha, scale 0 to 100, 0 no effect, 100 complete control, 13 to 15 d.
Setting [17] is: postemergence, 62 g ai/ha, scale 0 to 100, 0 no effect, 100 complete control.

In the case of `Cc1nn(C)c(=O)c(-c2c(C)oc3c(C)cccc23)c1O` [Compound 9, 4-(2,7-dimethyl-3-benzofuranyl)-5-hydroxy-2,6-dimethyl-3(2H)-pyridazinone], the pest or weed control at 125 g/ha stood at 10% in experiment [1] (post-emergence, Postemergence, visual rating after approx. 10 d, 0 to 100 scale (0 no effect, 100 complete control), read-out: Plant response rating, Barnyardgrass); 50% in experiment [1] (pre-emergence, Preemergence, 0 to 100 scale where 0 is no effect and 100 is complete control, read-out: Barnyardgrass plant response rating); 10% in experiment [2] (post-emergence, Postemergence, visual rating after approx. 10 d, 0 to 100 scale (0 no effect, 100 complete control), read-out: Plant response rating, Foxtail, Giant); 70% in experiment [2] (pre-emergence, Preemergence, 0 to 100 scale where 0 is no effect and 100 is complete control, read-out: Foxtail, Giant plant response rating); 0% in experiment [3] (post-emergence, Postemergence, visual rating after approx. 10 d, 0 to 100 scale (0 no effect, 100 complete control), read-out: Plant response rating, Pigweed); 0% in experiment [3] (pre-emergence, Preemergence, 0 to 100 scale where 0 is no effect and 100 is complete control, read-out: Pigweed plant response rating). The pest or weed control at 500 g/ha in experiment [1] (setting [6]) was 90%; in experiment [1] (setting [7]), 100%; in experiment [2] (setting [8]), 90%; in experiment [2] (setting [9]), 100%; in experiment [3] (setting [10]), 0%; in experiment [3] (setting [11]) it was 0%. In the experiment on corn (Zea mays) (post-emergence, Postemergence, 125 g ai/ha, visual rating after approx. 10 d, 0 to 100 scale (0 no effect, 100 complete control)), this compound registered a Corn plant response rating (crop injury, 0 = no effect, 100 = complete kill) at 125 g/ha of 0%. The plant injury at 500 g/ha in the experiment on corn (Zea mays) (post-emergence, Postemergence, 500 g ai/ha, 0 to 100 scale, 0 is no effect, 100 is complete control, read-out: Corn plant response rating) came out at 0%; in experiment [4] (setting [12]), 0%; in experiment [4] (setting [13]) it was 0%. In addition, the plant injury at 125 g/ha in the experiment with corn (Zea mays) (pre-emergence, Preemergence, 125 g ai/ha, 0 to 100 scale where 0 is no effect and 100 is complete control, read-out: Corn plant response rating) was determined as 0%; in experiment [4] (post-emergence, Postemergence, visual rating after approx. 10 d, 0 to 100 scale (0 no effect, 100 complete control), read-out: Plant response rating, Wheat) it was 0%; in experiment [4] (pre-emergence, Preemergence, 0 to 100 scale where 0 is no effect and 100 is complete control, read-out: Wheat plant response rating), 0%. For the same compound, the Corn plant response rating (crop injury, 0 = no effect, 100 = complete kill) at 500 g/ha in the experiment on corn (Zea mays) (pre-emergence, Preemergence, 500 g ai/ha, 0 to 100 scale, 0 no effect, 100 complete control) is 0%.

For the compound `Cc1ccc2sc(C)c(-c3c(O)c(C)nn(C)c3=O)c2c1` [Compound 1, 4-(2,5-dimethylbenzo[b]thien-3-yl)-5-hydroxy-2,6-dimethyl-3(2H)-pyridazinone], the pest or weed control at 1000 g/ha in experiment [1] (setting [6]) was determined as 90%; in experiment [1] (setting [7]) it was 90%; in experiment [2] (setting [8]), 80%; in experiment [2] (setting [9]), 100%; in experiment [3] (setting [10]) it was 100%; in experiment [3] (setting [11]) it was 100%. Further, the plant injury at 1000 g/ha with corn (Zea mays) (post-emergence, Postemergence, 1000 g ai/ha, 0 to 100 scale, 0 is no effect, 100 is complete control, read-out: Corn plant response rating) stood at 40%; in experiment [4] (setting [12]) it was 0%; in experiment [4] (setting [13]), 0%. In the experiment with corn (Zea mays) (pre-emergence, Preemergence, 1000 g ai/ha, 0 to 100 scale, 0 no effect, 100 complete control), the Corn plant response rating (crop injury, 0 = no effect, 100 = complete kill) at 1000 g/ha was 0%. Further, the “Kochia plant response rating” value with kochia (Kochia scoparia) (setting [14]) and in the experiment on kochia (Kochia scoparia) (setting [17]) was 95 throughout. The “Plant response rating, Kochia” value is 95 with kochia (Kochia scoparia) (setting [15]) and 100 in the experiment on kochia (Kochia scoparia) (setting [16]). Further, the “Oat, Wild plant response rating” value in experiment [5] (setting [14]) is listed as 50; in experiment [5] (setting [17]), 70. Besides, the “Plant response rating, Oat, Wild” value came out at 85 in experiment [5] (setting [15]) and 100 in experiment [5] (setting [16]).

Source of the values: patent US10597388B2, “Pyridazinone herbicides” (FMC CORPORATION, priority 2014, dated 2020).
